From patent publication US20050074404A1, “Methods for avoiding renal injury” (Pfizer Inc., priority 2002, published 2005)

Assays:
[1] = Urinary retinol concentrations in rats (HPLC); type: in vivo, rat; conditions: 100 mg/kg intramuscular once per day, 24 h urine
Experimental: A. Dosing of Mammals, Collection and Storage of Urine
(§1) Male Sprague Dawley rats (105-125 grams each) were purchased from Charles River (Kingston, N.Y.). […] Rats were dosed intramuscular, using a 25 gauge tuberculin syringe. The animals were housed individually prior to urine collection. For the urine collection, rats were transferred to individual metabolism cages. At all times throughout the study, the animals had free access to food and water. […] Rats were dosed once per day for the duration of 1, 4 or 9 days. Urine was collected after one dose, four doses and nine doses. Each collection period was for 24 hours. Urine was collected, chilled to approximately 4° C. and protected from light. Total urine volume was measured at the end of each collection period prior to retinol analysis. The urine was stored at −80° C. and in darkness to protect the components of the urine from oxidation and degration until analysis.
B. Measurement of Retinol in Urine Samples
The acetonitrile, methanol, isopropanol and tetrahydrofuran (THF) were purchased from J. T. Baker (Phillipsburg, N.J.). The acetonitrile and methanol were HPLC grade and the isopropanol and THF were ACS reagent grade. The water in the mobile phase came from a Nanopure® water filtration system (Barnstead, Dubuque, Ind.). Retinol and retinol acetate standards were purchased from ICN Biomedicals (Costa Mesa, Calif.). The retinol palmitate was purchased from Sigma Chemicals (St. Louis, Mo.).
The HPLC instrumentation consisted of a Hewlett-Packard Model 1090 Series II system (Hewlett Packard Company, Palo Alto, Calif.) equipped with a tertiary gradient pump, diode array detector, and a cooled auto-sampler. Hewlett-Packard Chemstation™ software (Rev. 5.02) was used for data collection and analysis. Absorbance data for all retinols was collected at a wavelength of 340 nm. All separations were carried out on a 15 cm×2.0 mm, 5μ particle size, Prodigy ODS (2) HPLC column (Phenomenex, Torrance, Calif.). The column was equipped with an inlet filter, 0.5μ×1.5 mm (Phenomenex, Torrance, Calif.). […]

[2] = test system: rat kidney; experiment: Sudan black staining of rat kidney for phospholipids; type: in vivo
Source text: (§2) The physiological events that characterize the onset of phospholipidosis are well known to those with skill in the art (see, for example, Girton (2002)). […] Following endocytosis, the aminoglycoside accumulates in lysosomes. The lysosomes eventually swell with excess lipid debris. When visualized using electron-microscopy, the accumulated lipid appear as phospholipid inclusions, or myelin figures, within the lysosomes (Kosek et al. (1974)) (see FIG. 1 and FIG. 2 below). The phospholipid inclusions may also be visualized by staining with Sudan black as described, for example, in Presnell and Schreibman (1997) (see FIG. 3 below). The damage to renal tissue from phospholipidosis may be visualized by histological examination using hematoxylin and eosin staining (H & E) of the renal tissue damaged through phospholipidosis. The damage that is evident includes tubular degeneration, vacuolation and eventually, in advanced stages of damage, necrosis of the renal proximal tubule (see FIG. 5 and FIG. 6 below).
as §1

[3] = test system: rat kidney; experiment: Histopathology of rat kidney (H & E); type: in vivo
Source text: as §2, §1

[4] = test system: rat proximal tubule; experiment: Electron microscopy of rat proximal tubule; type: in vivo; conditions: four days of treatment with 100 mg/kg
Source text: as §2
Male Sprague Dawley rats (105-125 grams each) were purchased from Charles River (Kingston, N.Y.). […] Rats were dosed intramuscular, using a 25 gauge tuberculin syringe. The animals were housed individually prior to urine collection. […] Total urine volume was measured at the end of each collection period prior to retinol analysis. […]

[5] = Urinary albumin concentrations in rats; type: in vivo, rat; conditions: 100 mg/kg once per day
Experimental: as §1

Gentamicin sulfate
Urinary retinol concentration ([1]; Day 1, mean of eight rats): 123.57 nM
Urinary retinol concentration ([1]; Day 4, mean of eight rats): 131.08 nM
Urinary retinol concentration ([1]; Day 9, mean of eight rats): 2457.13 nM
Significant Sudan black staining, onset ([2]; 100 mg/kg once per day): not observed until day four
Sudan black staining negative, number of animals ([2]; 100 mg/kg, Day 1, of 8 rats): 3
Sudan black staining slight, number of animals ([2]; 100 mg/kg, Day 1, of 8 rats): 5
Sudan black staining mild, number of animals ([2]; 100 mg/kg, Day 4, of 8 rats): 1
Sudan black staining mild-moderate, number of animals ([2]; 100 mg/kg, Day 4, of 8 rats): 2
Sudan black staining moderate, number of animals ([2]; 100 mg/kg, Day 4, of 8 rats): 2
Sudan black staining moderate-marked, number of animals ([2]; 100 mg/kg, Day 4, of 8 rats): 3
Sudan black staining marked, number of animals ([2]; 100 mg/kg, Day 9, of 8 rats): 1
Sudan black staining mild, number of animals ([2]; 100 mg/kg, Day 9, of 8 rats): 1
Sudan black staining mild-moderate, number of animals ([2]; 100 mg/kg, Day 9, of 8 rats): 1
Sudan black staining moderate, number of animals ([2]; 100 mg/kg, Day 9, of 8 rats): 2
Sudan black staining moderate-marked, number of animals ([2]; 100 mg/kg, Day 9, of 8 rats): 3
Sudan black staining ([2]; after a single dose (100 mg/kg)): slight staining
Histopathologic effects, onset ([3]; 100 mg/kg once per day): do not begin to appear until day four
Chronic Progressive Nephropathy, slight, number of animals ([3]; 100 mg/kg, Day 1, of 8 rats): 1
Hyaline droplets, slight, number of animals ([3]; 100 mg/kg, Day 1, of 8 rats): 3
No significant findings, number of animals ([3]; 100 mg/kg, Day 1, of 8 rats): 4
Chronic Progressive Nephropathy, slight, number of animals ([3]; 100 mg/kg, Day 4, of 8 rats): 2
Hyaline droplets, mild, number of animals ([3]; 100 mg/kg, Day 4, of 8 rats): 1
Hyaline droplets, slight, number of animals ([3]; 100 mg/kg, Day 4, of 8 rats): 3
Tubular degeneration (1), mild, number of animals ([3]; 100 mg/kg, Day 4, of 8 rats): 2
Tubular degeneration (1), slight, number of animals ([3]; 100 mg/kg, Day 4, of 8 rats): 6
Tubular vacuolation, mild, number of animals ([3]; 100 mg/kg, Day 4, of 8 rats): 3
Tubular vacuolation, slight, number of animals ([3]; 100 mg/kg, Day 4, of 8 rats): 3
Hyaline droplets, mild, number of animals ([3]; 100 mg/kg, Day 9, of 8 rats): 4
Hyaline droplets, slight, number of animals ([3]; 100 mg/kg, Day 9, of 8 rats): 1
Tubular degeneration/necrosis/regeneration (3), marked, number of animals ([3]; 100 mg/kg, Day 9, of 8 rats): 6
Tubular degeneration/necrosis/regeneration (3), severe, number of animals ([3]; 100 mg/kg, Day 9, of 8 rats): 2
Tubular vacuolation, mild, number of animals ([3]; 100 mg/kg, Day 9, of 8 rats): 2
Tubular vacuolation, moderate, number of animals ([3]; 100 mg/kg, Day 9, of 8 rats): 4
Tubular vacuolation, slight, number of animals ([3]; 100 mg/kg, Day 9, of 8 rats): 1
Rat kidney tissue histology (FIG. 5) ([3]; four days of treatment with 100 mg/kg): early lesions formation
Rat kidney tissue histology (FIG. 6) ([3]; nine days of treatment with 100 mg/kg): extensive kidney tissue damage
Electron-micrograph finding in rat proximal tubule (FIG. 1) [4]: phospholipid inclusions or myelin figures
Urinary albumin concentration ([5]; Day 1, mean of eight rats): 163 µg/mL
Urinary albumin concentration ([5]; Day 4, mean of eight rats): 354 µg/mL
Urinary albumin concentration ([5]; Day 9, mean of eight rats): 1184 µg/mL
